Biological target: T1, human TRPM5 ion channel (Homo sapiens, UniProt Q9NZQ8)
T1 sequence (Q9NZQ8 1-1165): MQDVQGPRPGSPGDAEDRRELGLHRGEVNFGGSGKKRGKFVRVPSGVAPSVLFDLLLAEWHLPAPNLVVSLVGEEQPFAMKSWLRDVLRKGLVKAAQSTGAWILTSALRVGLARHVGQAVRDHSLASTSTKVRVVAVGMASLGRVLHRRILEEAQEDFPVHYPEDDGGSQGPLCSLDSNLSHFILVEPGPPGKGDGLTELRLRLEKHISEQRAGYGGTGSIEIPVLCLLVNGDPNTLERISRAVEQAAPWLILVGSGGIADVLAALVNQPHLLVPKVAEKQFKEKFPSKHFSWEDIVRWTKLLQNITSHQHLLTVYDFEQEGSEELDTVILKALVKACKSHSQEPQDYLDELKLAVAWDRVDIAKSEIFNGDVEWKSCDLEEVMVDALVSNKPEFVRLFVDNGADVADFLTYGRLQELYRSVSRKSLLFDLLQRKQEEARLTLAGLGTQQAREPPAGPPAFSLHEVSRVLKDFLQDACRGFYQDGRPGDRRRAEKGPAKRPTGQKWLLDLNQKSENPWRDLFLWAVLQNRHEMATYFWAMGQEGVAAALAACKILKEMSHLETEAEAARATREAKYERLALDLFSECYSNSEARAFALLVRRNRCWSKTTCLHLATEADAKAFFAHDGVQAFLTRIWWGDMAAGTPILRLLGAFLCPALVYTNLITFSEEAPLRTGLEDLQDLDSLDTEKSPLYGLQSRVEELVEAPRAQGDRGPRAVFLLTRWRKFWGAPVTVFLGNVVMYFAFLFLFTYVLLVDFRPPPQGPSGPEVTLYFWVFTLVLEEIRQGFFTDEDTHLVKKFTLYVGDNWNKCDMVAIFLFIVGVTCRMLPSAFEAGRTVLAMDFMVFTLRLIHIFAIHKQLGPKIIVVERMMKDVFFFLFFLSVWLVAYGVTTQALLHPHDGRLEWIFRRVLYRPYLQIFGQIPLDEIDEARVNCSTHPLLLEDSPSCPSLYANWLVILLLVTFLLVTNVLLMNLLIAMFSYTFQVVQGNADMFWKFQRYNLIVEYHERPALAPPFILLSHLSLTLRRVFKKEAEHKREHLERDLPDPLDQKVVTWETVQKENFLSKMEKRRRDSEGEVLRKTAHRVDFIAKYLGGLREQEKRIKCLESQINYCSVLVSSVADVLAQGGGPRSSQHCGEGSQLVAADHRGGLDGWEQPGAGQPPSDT
Assay: FLIPR-based assay for membrane potential and calcium mobilization (TRPM5 inhibiting activity)
Assay type: cell-based
Settings: live cells, 30° C., read-out: hTrpM5 IC50
Method: The activity of compounds of the present invention on human TRPM5 ion channel was measured using the FLIPR-based (fluorescent imaging plate reader) assay for membrane potential and calcium mobilization described in U.S. Patent Application Publication No. 2008/0249189 A1 in live cells, wherein the assay is performed at 30° C. Determinations of affinity and efficacy were derived from measurements of TRPM5 activity over a range of compound concentrations. The concentration range was achieved by 10 serial dilutions (either 2-fold or 3-fold decrements) from a maximum concentration of no greater that 100 μM. Curver fitting was performed on the resulting data to yield concentration-effect functions, from which the half-maximal inhibitory concentration (IC50) was derived for all the tested compounds. The IC50 values were considered to be accurate reflections of affinity between the compounds and TRPM5.
Representative compounds of the present invention have been tested in the FLIPR assay for TRPM5 inhibiting activity, which is described in detail above.

SMILES	IC50
COc1cc(C)c2cc(/C=N/NC(=O)CCn3cc(C)c4ccccc43)ccc2n1 [Example 52, N′-((2-Methoxy-4-methylquinolin-6-yl)methylene)-3-(3-methyl-1H-indol-1-yl)propanehydrazide]	2000 nM
Cc1cn(CCC(=O)N/N=C/c2ccc3c(c2)OCCN3C)c2ccccc12 [Example 60, 3-(3-methyl-1H-indol-1-yl)-N′-((4-methyl-3,4-dihydro-2H-benzo[b][1,4]-oxazin-7-yl)methylene)propanehydrazide]	750 nM
Cc1cc(C=NNC(=O)C2CC2c2ccccc2)cc2cccnc12 (single isomer, unassigned) [11 (E1), trans-N′-((8-Methylquinolin-6-yl)methylene)-2-phenylcyclopropanecarbohydrazide, E1 enantiomer]	> 10000 nM
O=C(N/N=C/c1ccc2ncccc2n1)[C@@H]1C[C@H]1c1cccc(Cl)c1 (relative stereo) [Example 31, trans-N′-((1,5-Naphthyridin-2-yl)methylene)-2-(3-chlorophenyl)cyclopropanecarbohydrazide]	~50000 nM
COc1ccc(/C=N/NC(=O)CCn2cc(CN(C)C)c3c(Cl)cccc32)cc1OC [Example 47, 3-(4-Chloro-3-((dimethylamino)methyl)-1H-indol-1-yl)-N′-(3,4-dimethoxybenzylidene)propanehydrazide]	1500 nM
Cc1cc(/C=N/NC(=O)C2CC2c2ccc(Cl)cn2)cc2cccnc12 (stereo not drawn) [Example 43, trans-2-(5-Chloropyridin-2-yl)-N′-((8-methylquinolin-6-yl)methylene)cyclopropanecarbohydrazide]	5400 nM
Cc1cn(CCC(=O)N/N=C/c2ccc3ncccc3n2)c2ccccc12 [Example 33, N′-((1,5-Naphthyridin-2-yl)methylene)-3-(3-methyl-1H-indol-1-yl)propanehydrazide]	1300 nM
COc1ccc(/C=N/N(C)C(=O)C2CC2c2ccccc2)cc1OC (stereo not drawn) [Example 9, trans-N′-(3,4-Dimethoxybenzylidene)-N-methyl-2-phenylcyclopropanecarbohydrazide]	5000 nM
COc1ccc(/C=N/NC(=O)C(C)S(=O)(=O)c2cccc(Cl)c2)cc1OC (centres unmarked) [Example 51, 2-(3-Chlorophenylsulfonyl)-N′-(3,4-dimethoxybenzylidene)propanehydrazide]	1700 nM
COc1ccc([C@@H]2C[C@H]2C(=O)N/N=C/c2cc(C)c3ncccc3c2)cn1 (relative stereo) [Example 41, trans-2-(6-Methoxypyridin-3-yl)-N′-((8-methylquinolin-6-yl)methylene)cyclopropanecarbohydrazide]	5000 nM
COc1cc(/C=N/NC(=O)C2CC2c2ccccc2)ccc1OCc1cccnc1 (stereo not drawn) [Example 20, trans-N′-(3-Methoxy-4-(pyridin-3-ylmethoxy)benzylidene)-2-phenylcyclopropanecarbohydrazide]	1600 nM
COc1ccc(/C=N/NC(=O)[C@@H]2C[C@H]2c2ccc3ccccc3n2)cc1OC (relative stereo) [Example 36, trans-N′-(3,4-Dimethoxybenzylidene)-2-(quinolin-2-yl)cyclopropanecarbohydrazide]	930 nM
COc1ccc(/C=N/NC(=O)CCn2cnc3c(C)cccc32)cc1OC [Example 17, N′-(3,4-Dimethoxybenzylidene)-3-(4-methyl-1H-benzo[d]imidazol-1-yl)propanehydrazide]	2400 nM
Cc1ccc2cc(/C=N/NC(=O)CCn3cc(C)c4ccccc43)ccc2n1 [Example 69, 3-(3-methyl-1H-indol-1-yl)-N′-((2-methylquinolin-6-yl)methylene)-propanehydrazide]	> 30000 nM

Compounds with a lower IC50, results first:

IC50	SMILES
340 nM	O=C(N/N=C/c1cc(Cl)c2ncccc2c1)[C@@H]1C[C@H]1c1ccccc1 (relative stereo) [Example 25, trans-N′-((8-Chloroquinolin-6-yl)methylene)-2-phenylcyclopropanecarbohydrazide]
500 nM	COc1cc(/C=N/NC(=O)CCn2cc(C)c3ccccc32)ccc1OCCCO [Example 4, N′-(4-(3-Hydroxypropoxy)-3-methoxybenzylidene)-3-(3-methyl-1H-indol-1-yl)propanehydrazide]
12 nM	COc1ccc(/C=N/NC(=O)CCn2ccc3c(C)cccc32)cc1OC [Example 57, N′-(3,4-dimethoxybenzylidene)-3-(4-methyl-1H-indol-1-yl)propanehydrazide]
680 nM	COc1ccc(/C=N/NC(=O)CCn2cc(C)c3cccnc32)cc1OC [Example 14, N′-(3,4-Dimethoxybenzylidene)-3-(3-methyl-1H-pyrrolo[2,3-b]pyridin-1-yl)propanehydrazide]
5 nM	Cc1cc(/C=N/NC(=O)CCn2cc(C)c3c(C)cccc32)cc2cccnc12 [Example 64, 3-(3,4-dimethyl-1H-indol-1-yl)-N′-((8-methylquinolin-6-yl)-methylene)propanehydrazide]
3 nM	COc1cc(F)c(/C=N/NC(=O)CCn2cc(C)c3c(C)cccc32)cc1OC [Example 8, 3-(3,4-Dimethyl-1H-indol-1-yl)-N′-(2-fluoro-4,5-dimethoxybenzylidene)propanehydrazide]
45 nM	COc1cc(/C=N/NC(=O)C2CC2c2cccc(Cl)c2)cc2cccnc12 (stereo not drawn) [Example 30, trans-2-(3-Chlorophenyl)-N′-((8-methoxyquinolin-6-yl)methylene)cyclopropanecarbohydrazide]
51 nM	COc1ccc(/C=N/NC(=O)CCc2cn(C)c3ccccc23)cc1OC [Example 2, N′-(3,4-dimethoxybenzylidene)-3-(1-methyl-1H-indol-3-yl)propanehydrazide]
650 nM	O=C(N/N=C/c1cc(Cl)c2ncccc2c1)[C@@H]1C[C@H]1c1cccc(Cl)c1 (relative stereo) [Example 28, trans-2-(3-Chlorophenyl)-N′-((8-chloroquinolin-6-yl)methylene)cyclopropanecarbohydrazide]
660 nM	COc1ccc(/C=N/NC(=O)CSc2ccccc2)cc1OC [Example 55, N′-(3,4-dimethoxybenzylidene)-2-(phenylthio)acetohydrazide]
210 nM	Cc1cnc2ccc(/C=N/NC(=O)CCn3cc(C)c4ccccc43)cc2c1 [Example 61, 3-(3-methyl-1H-indol-1-yl)-N′-((3-methylquinolin-6-yl)methylene)-propanehydrazide]
200 nM	COc1ccc(/C=N/NC(=O)NCCc2ccccc2)cc1OC [Example 65, 2-(3,4-dimethoxybenzylidene)-N-phenethylhydrazinecarboxamide]
610 nM	COc1ccc(C=NNC(=O)[C@@H]2C[C@H]2c2cnc3ccccc3c2)cc1OC (relative stereo) [Example 38, trans-N′-(3,4-Dimethoxybenzylidene)-2-(quinolin-3-yl)cyclopropanecarbohydrazide]
120 nM	COc1ccnc2ccc(/C=N/NC(=O)CCn3cc(C)c4ccccc43)cc12 [Example 63, N′-((4-methoxyquinolin-6-yl)methylene)-3-(3-methyl-1H-indol-1-yl)propanehydrazide]
180 nM	Cc1cn(CCC(=O)N/N=C/c2ccc3c(c2)OCCCO3)c2ccccc12 [Example 58, N′-((3,4-dihydro-2H-benzo[b][1,4]di-oxepin-7-yl)methylene)-3-(3-methyl-1H-indol-1-yl)propanehydrazide]

Reference: patent US20110033393A1, “Hydrazone Compounds and Their Use” (priority 2009, published 2011)
